Measured values as given in patent publication US5585367A (priority 1990, dated 1996).
In brackets after ≈: the same amount, converted by molar mass. Like-named read-outs stand apart in the source and are kept apart here.

Key:
HIV-1 LAI/IIIB [1] = assay: Inhibition of HIV replication in MT4 cells; assay type: cell-based
HIV-2 ROD = assay: Inhibition of HIV replication in MT4 cells; assay type: cell-based; settings: 0.4 μgr/ml to 250.0 μgr/ml
HIV [2] = assay: Inhibition of HIV replication, summary over strains and cells; assay type: cell-based, HIV-1 and HIV-2; settings: Human immunodeficiency virus 1, p24, 7 to 8 days after infection
T4 lymphocytes = assay: Treatment of three patients presenting different stages of AIDS; assay type: in vivo, human; settings: first patient (final phase), 1500 mgr a day, day 30; day 0: 24 cells
HIV-1 Wild A = assay: Inhibition of HIV replication in PBL's; assay type: cell-based; settings: Human immunodeficiency virus 1
HIV [3] = assay: In-vitro combination with didanosine; assay type: cell-based; settings: at and below the IC50
HIV-1 Wild D = assay: Inhibition of HIV replication in PBL's; assay type: cell-based; settings: Human immunodeficiency virus 1
HIV-1 [4] = assay type: cell-based
HIV-1 LAI/IIIB [5] = assay: Inhibition of HIV replication in PBL's; assay type: cell-based; settings: PBLs; 0.4 μgr/ml to 250.0 μgr/ml
HIV-1 strain IIIB /LAI = assay: Inhibition of HIV-1 replication in acutely infected PBLs (p24 ELISA); assay type: cell-based; settings: for Protection: "Toxic" means that the cells are destroyed
Experimental: A new assay was conducted by the AIDS laboratory of the REGA Institute for Medical Research of the Katholieke Universiteit of Leuven.
1,1'-azobisformamide was purchased from Riedel de Haen and stored in a refrigerator (4°-8° C.) under light-protected conditions. Dilutions were prepared in order to obtain concentrations of 0.4 μg/ml, 2 μg/ml, 10 μg/ml, 50 μg/ml and 250 μg/ml.
Peripheral Blood Lymphocytes (PBLs) were freshly collected from a single donor. PBLs were activated by phytohemagglutinin at 2 μg/ml during 3 days, and then cultured in the presence of IL-2 for 1 week.
HIV-1 strain IIIB /LAI was provided by R. C. Gallo (Popovic M. et al, Science 1984, 224:497-500). Stocks were obtained from the culture supernatants of HIV-1 infected cell lines (HUT 78/IIIB /LAI).
The inhibitory effects of 1,1'-azobisformamide on the replication of strain IIIB /LAI in PBLs were monitored by the detection of HIV-1 p24 core antigens. PBLs were incubated with an excess of strain IIIB /LAI at 37° C. for 60 min. All cells were washed once with RPMI 1640 medium. Thereafter cells were plated at 1×10^6 cells per ml in the presence of various concentrations of the test compound. Seven days after plating PBLs, p24 antigens were detected by enzyme-linked immunosorbent assay (ELISA) (HIV-1 p24 Core Profile ELISA from Du Pont).
This method comprises measuring the concentration of the viral antigen p24 in the supernatant, i.e., the concentration of free viruses produced by replication of the viruses present in the infected cells. This measure is expressed as a measure of protection (see Table I below), where [formula]

HIV-1 Wild B = assay: Inhibition of HIV replication in PBL's; assay type: cell-based; settings: Human immunodeficiency virus 1
[6] = Single oral doses to healthy volunteers, tolerability and safety; assay type: in vivo, human
Experimental: Pharmaceutical grade ADA in gelatin capsules, each containing 500 mg, was administered as single oral doses to healthy volunteers to determine its tolerability and safety. […] These changes were reversible within 4-6 hours from intake.

HIV-1 [7] = assay type: cell-based; remark: listed apart in the source
HIV-1 Wild E = assay: Inhibition of HIV replication in PBL's; assay type: cell-based; settings: Human immunodeficiency virus 1
[8] = target: T1, HIV-1 reverse transcriptase (RT) (Human immunodeficiency virus type 1 BH10, UniProt P03366); assay: Acellular in-vitro inhibition of reverse transcriptase (polyrC-oligodG template-primer-complex); assay type: biochemical
T1 construct: mature RT from Gag-Pol polyprotein (pr160Gag-Pol)
Experimental: ADA in a liquid medium was tested in an acellular in-vitro system for any inhibitory effect on HIV-1 reverse transcriptase (RT) using the polyrC-oligodG template-primer-complex. […] From concentrations of 60 μgr/ml upward, there is a 50% inhibition of RT. […] Therefore, ADA inhibits HIV replication with an as yet unknown but original mode of action.

clinical = settings: human, in vivo, po
[9] = single oral doses, one volunteer

In the case of `NC(=O)N=NC(N)=O` [ADA, 1,1'-azobisformamide], the IC50 (HIV-1 LAI/IIIB [1]; Human immunodeficiency virus 1, IIIB, MT4, MT4 cells infected with HIV-1 strain LAI/IIIB, read-out: lowest observed IC50) was 1.6 µg/mL (≈ 13.8 µM), the “inhibition of the replication of HIV-1” value (HIV-1 LAI/IIIB [1]; MT4 cells, 0.4 μgr/ml to 250.0 μgr/ml) was “inhibits the replication” and the “inhibition of the replication of HIV-2 (ROD)” value (HIV-2 ROD) was “inhibits the replication”. The IC50 (HIV [2]; read-out: IC50 range) was 1.6 to 14.8 µg/mL (≈ 13.8 to 127 µM), the IC50 (HIV [2]; read-out: median IC50) was 8 µg/mL (≈ 68.9 µM) and the flu-like syndrome (140 mg/kg, from 6 hours after intake, lasted several hours) was “flu-like syndrome was observed”. For the same molecule, the “adverse effects such as changes in hemodynamic parameters or subjective well-being” value (lower doses (35 and 70 mg/kg)) was “No adverse effects”, the T4 lymphocytes (T4 lymphocytes) was 49 cells/mm^3 and the IC50 (HIV-1 Wild A) was 8.9 µg/mL (≈ 76.7 µM). The IC90 (HIV-1 Wild A) was 17.4 µg/mL (≈ 150 µM), the combination with didanosine (HIV [3]) was “additive effects” and the IC50 (HIV-1 Wild D) was 10 µg/mL (≈ 86.1 µM). For the same molecule, the IC90 (HIV-1 Wild D) was 18.1 µg/mL (≈ 156 µM), the “protection of cellular cultures against the infectious power of HIV-1” value (HIV-1 [4]) was “protects the cellular cultures against the infectious power of HIV-1” and the “inhibition of the replication of HIV-1 (strain IIIB(LAI))” value (HIV-1 LAI/IIIB [5]) was “inhibit the replication”. The Protection (HIV-1 strain IIIB /LAI; 50 μg/ml) was “Toxic”, the Protection (HIV-1 strain IIIB /LAI; 250 μg/ml) was “Toxic” and the inhibition at 0.4 µg/mL (HIV-1 strain IIIB /LAI; Human immunodeficiency virus 1, IIIB, 168 h, 0.4 μg/ml, read-out: Protection) was 15.2%. For the same molecule, the inhibition at 2 µg/mL (HIV-1 strain IIIB /LAI; Human immunodeficiency virus 1, IIIB, 168 h, 2 μg/ml, read-out: Protection) was 45.8%, the inhibition at 10 µg/mL (HIV-1 strain IIIB /LAI; Human immunodeficiency virus 1, IIIB, 168 h, 10 μg/ml, read-out: Protection) was 77.6% and the IC50 (HIV-1 strain IIIB /LAI; Human immunodeficiency virus 1, PBLs acutely infected with IIIB /LAI) was 2.47 µg/mL (≈ 21.3 µM). The IC50 (HIV-1 Wild B) was 11.6 µg/mL (≈ 99.9 µM), the IC90 (HIV-1 Wild B) was 18.6 µg/mL (≈ 160 µM) and the “adverse effects on hematological and chemical parameters in blood and urine” value ([6]; 40 mg/kg or 60 mg/kg) was “No adverse effects were observed”. The “adverse effects on blood pressure, pulse, or respiratory rate” value ([6]; any of the tested dosages) was “No adverse effects were observed”, the “glutathione in peripheral blood” value ([6]; from doses of 40 mg/kg) was “slightly depressed” and the “methemoglobin reduces [reductase] in peripheral blood” value ([6]; from doses of 40 mg/kg) was “slightly depressed”. The “reversibility of the changes, time from intake” value ([6]; from doses of 40 mg/kg) was 4 to 6 h, the tolerability ([6]; single oral dosages of up to 60 mg per kg body weight) was “well tolerated” and the methemoglobin [6, 9] was “dose-related increase in methemoglobin”. For the same molecule, the “return of methemoglobin to normal” value [6, 9] was “within half an hour”, the “time of methemoglobin Cmax after intake” value [6, 9] was 1 to 1.5 h and the “toxical effect on Supt-1 cells” value (Supt-1 cells) was “No toxical effect has been noted”. The cytopathogenic effect (HIV-1 [7]) was “No cytopathogenic effect has been observed”, the IC50 (HIV-1 Wild E) was 8.3 µg/mL (≈ 71.5 µM) and the IC90 (HIV-1 Wild E) was 18.4 µg/mL (≈ 159 µM). For the same molecule, the RT inhibition ([8]; at concentrations up to the IC90) was “not an RT-inhibitor”, the “inhibition of RT” value ([8]; from concentrations of 60 μgr/ml upward) was 50% and the “toxicity against VERO cells” value (VERO cells) was “No toxicity against VERO cells was observed”. For the same molecule, the MTD (clinical) was 140 mg/kg.
